Article PMC11251039, “Harnessing cholesterol uptake of malaria parasites for therapeutic applications” (EMBO Molecular Medicine, 2024)
Where “and” joins values, the source holds several entries; their conditions need not be identical. Identical values can stand only once.

How the values were obtained:
[1] = test system: P. berghei liver stage parasites; experiment: P. berghei liver stage parasite size and number (fluorescence microscopy, coverslips); type: cell-based, Plasmodium berghei; details: for Normalised mean size of liver stage parasites, percentage of the solvent control: per coverslip, source data Fig. 3C
Description: Uninfected wells served as a control for background luminescence. […] No other manipulations were performed.
(§1) Appendix Fraser/Curtis et al.
For measurement of parasite size and number, 20,000 Huh7 cells were seeded onto collagen-coated coverslips on the day prior to infection. As above, 10,000 – 20,000 sporozoites were added per slide, allowed to invade for 60 minutes after centrifugation, and then incubated for […]
Infected cells were fixed with 3% paraformaldehyde in PBS, permeabilized with 0.3% v/v Triton X-100, and labelled with 1:1,000 polyclonal chicken anti-GFP (Abcam ab13970), 1:2,000 goat anti-chicken Alexa […]
intrinsic GFP fluorescence could be detected, as well as Fluoromount-G® containing 4′,6-diamidino-2-phenylindole (DAPI; Southern Biotech), to stain parasite and host cell nuclei.
Images were collected on a Zeiss Axio Observer Z2 microscope with a Zeiss AxioCam MRm at 200× or 400× (for quantification) or 630× (for cell images) magnification, with a resolution of […], 163 nm or 102 nm per pixel respectively. Alexa Fluor™ 546 fluorescence was detected at 546/13 nm excitation and 675/35 nm emission. […]
fluorescence was detected at 470/20 nm excitation and 525/25 nm emission. DAPI fluorescence (nucleic acid) was detected at 359/24 nm ex and 445/25 nm em. For quantification, all cells on each coverslip were imaged under the same settings for each experiment. P. berghei liver stage size was measured as described (24) using Fiji ImageJ (25). Liver-stage parasites were identified and delineated in fluorescent images using defined threshold levels, and the identified fluorescent areas were used to measure parasite area. The number of parasites on each coverslip was also counted. […]
manipulations were performed.

[2] = test system: P. falciparum CAM3.II ring stages (0–3 h post invasion); experiment: Plasmodium falciparum ring stage survival assay, resistant strain; type: cell-based
Description: (§2) Following tight synchronisation using sorbitol and Percoll® floatation, ring stage CAM3.II and CAM3.IIREV parasites (0–3 h post invasion) at 1% parasitaemia and 2% haematocrit were incubated with 700 nM of compounds or solvent-only controls for exactly 6 h, before removing the drug, thoroughly washing in RPMI with HEPES, and returning to culture conditions for a further 66 h. Some cells were treated with 700 nM artesunate for 72 h as a no-growth control. DNA replication (indicating growth) was measured at the specified time using SYBR Safe DNA Stain. Microscope slide smears of each condition were stained with 10% v/v Giemsa and examined under a light microscope (×1000 magnification); with ‘viable’ (morphologically normal) and ‘non-viable’ (morphologically aberrant; vacuolated or pyknotic) parasites distinguished according to standard protocol (Witkowski et al, [2013]). Images were captured using a Leica ICC50 camera, with a resolution of 76 nm per pixel, and cropped from larger images using Fiji ImageJ.
as §1
(§3) Cells were detached from a flask using 0.25% Trypsin with 0.2 g/L EDTA (Sigma T4049) and washed with culture media containing no phenol red. Cells were incubated with a serial dilution of each compound, or media/DMSO alone. The protein synthesis inhibitor cycloheximide (Sigma 01810) at 10 µg/mL was used as a positive control to determine background absorbance. 5,000 cells were seeded in each well. After 96 hours, 0.45 mg/mL methylthiazolyldiphenyl-tetrazolium bromide (MTT; Sigma M2128) was added and incubated for a further two hours, before mixing 1.1:1 with 10% w/v sodium dodecyl sulfate (SDS) to solubilise crystals and freezing the plate at -18 °C to stop the assay. Plates were defrosted at room temperature and absorbance was read at 570 nm in an Infinite M1000 pro plate reader […]
(§4) Plasmodium falciparum Ring Stage Survival Assay
(§5) Ring stage survival assays were conducted according to standard protocols with some modifications (27, 28). CAM3.11 and CAM3.11REV parasites were sorbitol synchronised twice, 12 hours apart, and then incubated for a further 30 hours until the majority of the parasites were mature schizonts (with clearly separated nuclei). Pelleted RBCs were incubated at 37 °C with heparinised RPMI for 15 minutes, and then centrifuged over 75% Percoll® in PBS for 15 minutes at 1,000 g. Mature schizonts were collected, washed with warm RPMI, and cultured for exactly three hours with fresh uRBCs and culture media. After 3 hours, the cultures were sorbitol synchronised and incubated in duplicate with 700 nM of artesunate, PAYb076a, GGA5, HJB8a53, a DMSO solvent-only control or media alone for exactly six hours, before removing the drug, washing in RPMI, and returning to culture conditions. Samples of each cell suspension were transferred to a -18 °C freezer at the start of the assay (time = 0) or treated for the entire 72 hours with 700 nM artesunate to determine background fluorescence under no-growth conditions. After a further 66 hours of incubation (totalling 72 hours), cells were […]
(§6) resuspended, and a sample from each well was transferred to a fresh plate and frozen at -18 °C.
(§7) Microscope slide smears were made using the remaining cells and stained with 10% v/v Giemsa. Plates were thawed and SYBR Safe DNA Gel Stain (final concentration 1/10,000) diluted in lysis buffer (as above) was added for DNA detection at 490 nm excitation / 520 nm emission on a FLUOstar Optima fluorescence plate reader. Parasite proliferation and viability were also assessed using Giemsa-stained smears examined under a light microscope (1,000× magnification); with ‘viable’ and ‘non-viable’ (vacuolated or pyknotic) parasites distinguished according to standard protocol. Images were captured using a Leica ICC50 camera, with a resolution of 76 nm per pixel.
(§8) Growth inhibition data were normalised by subtracting background fluorescence, […]

[3] = test system: P. falciparum CAM3.IIREV ring stages (0–3 h post invasion); experiment: Plasmodium falciparum ring stage survival assay, susceptible revertant strain; type: cell-based
Description: as §2, §1, §3, §4, §5, §6, §7, §8

SMILES | Reduction of parasite size (area) compared to untreated parasites ([1]; 0.3 µM, 48 h) | Normalised mean size of liver stage parasites, percentage of the solvent control ([1]; 0.3 μM, 48 h) | Figure 3C - Individual Data Points (P. berghei liver stage parasite size, individual parasites) ([1]; 0.3 μM, Assay 2, first replicate column, individual data points) | Reduction of parasite size (area) compared to untreated parasites ([1]; 3 µM, 48 h) [%] | Ring stage survival, growth ([2]; 700 nM, 6 h treatment, 66 h further growth, CAM3.II resistant) | Ring stage survival, individual data points (Figure 4C) ([2]; CAM3.11, replicate experiments, listed as HJB8a53) | Ring stage survival, growth ([3]; 700 nM, 6 h treatment, 66 h further growth, CAM3.IIREV susceptible) | Ring stage survival, individual data points (Figure 4C) ([3]; CAM3.11REV, replicate experiments, listed as HJB8a53) | Normalised mean size of liver stage parasites, percentage of the solvent control ([1]; 0.3 μM, 48 h, listed as BC5B) | Parasite number per coverslip compared to the same concentration of primaquine ([1]; 0.3 or 3 µM, 48 h)
COc1cc(NC(C)CCCN)c2ncccc2c1 (stereo not drawn) [Primaquine, primaquine, reference compound] | not at 0.3 µM | 100% and 99.34% and 108% and 106.3% and 110.6% and 86.33% | 43.02 and 107.9 and 92.89 and 48.67 and 95.55 and 31.33 and 39.11 and 132.2 and 73.2 and 29.42 | 61 |  |  |  |  |  | 
CC(C)OC(=O)CCC(=O)O[C@H]1CC[C@H]2[C@@H]3CC=C4C[C@@H](O)CC[C@]4(C)[C@H]3CC[C@]12C [C-17-link] |  |  |  |  | did not significantly impact the growth | 67.82 and 103.7 and 86.39 and 70.09 | did not significantly impact the growth | 98.68 and 105.5 and 54.94 and 92.61 |  | 
COc1cc(NC(C)CCCNC(=O)CCC(=O)O[C@H]2CC[C@H]3[C@@H]4CC=C5C[C@@H](O)CC[C@]5(C)[C@H]4CC[C@]23C)c2ncccc2c1 (stereo partly drawn) [C-17-PQ] | 48% |  |  | 90 |  |  |  |  | 47.88% and 39.55% and 51.73% and 68.26% and 63.53% and 38.56% | significantly lower
